Patent US20260227397A1, “METHODS AND SYSTEMS OF PROFILING WITH BIOLOGICAL COMPUTING CELLS” (XENO CELL INNOVATIONS S.R.O., priority 2023, published 2026)

T1: alpha-factor, P01149
T1 chain: WHWLQLKPGQPMY


Columns and labels:
[1] = system: HaCaT (HCT, EpCAM+) cells; test: Cell-specific apoptosis rate in mixed HaCaT/Jurkat cell cultures (biocytometry readout); type: cell-based
Protocol: The presently described biocytometry was evaluated for measuring cell-specific apoptosis in mixed cell cultures. Despite the growing trend toward studying apoptosis in complex biological systems such as organoids and mixed cell cultures, conventional methods such as Caspase-based assays and MTT tests still yield limited sensitivity and quantify only aggregate apoptosis levels. To assess cell-specific apoptosis, mixed cultures of HaCaT (HCT, EpCAM+) and Jurkat (JUR, EpCAM−) cells at varied ratios (1:0 to 1:8) were utilized. Cells were cultured at a density of 40,000 cells/well in RPMI medium supplemented with 10% FBS and either subjected to 1 mM DTT treatment or left untreated. Following a 2.5-hour incubation at 37° C. in a 5% CO2 atmosphere, both total and apoptotic HaCaT cell counts were established using BIOS(EpCAM) and BIOS (EpCAM+PS), adhering to the biocytometry protocol. A noticeable reduction in total EpCAM+ cell count was evident in induced cell cultures, alongside an increase in the number of apoptotic EpCAM+ cells, aligning with the anticipated apoptotic changes (FIG. 12A). Apoptotic rates were calculated by normalizing BIOS(EpCAM+PS) counts to total cell counts from BIOS(EpCAM). […]

alpha-factor, P01149 = biological target: T1, alpha-factor, P01149

Molecule | increase in apoptotic rates among EpCAM+ cells ([1]; 1 mM DTT vs untreated controls) [fold] | apoptotic rate among EpCAM+ cells ([1]; 1 mM DTT, 2.5-hour incubation at 37° C., 1.7% baseline in untreated controls) [%] | degradation of alpha-factor; activation threshold of the biosensors (alpha-factor, P01149)
O[C@@H](CS)[C@@H](O)CS [DTT] | 7.2 | 12.2 | –
BAR1 protease of BAR1 computing units (protein) LTNDGTGHLEFLLQHEEEMYYATTLDIGTPSQSLTVLFDTGSADFWVMDSSNPFCLPNSNTSSYSNATYNGEEVKPSIDCRSMSTYNEHRSSTYQYLENGRFYITYADGTFADGSWGTETVSINGIDIPNIQFGVAKYATTPVSGVLGIGFPRRESVKGYEGAPNEYYPNFPQILKSEKIIDVVAYSLFLNSPDSGTGSIVFGAIDESKFSGDLFTFPMVNEYPTIVDAPATLAMTIQGLGAQNKSSCEHETFTTTKYPVLLDSGTSLLNAPKVIADKMASFVNASYSEEEGIYILDCPVSVGDVEYNFDFGDLQISVPLSSLILSPETEGSYCGFAVQPTNDSMVLGDVFLSSAYVVFDLDNYKISLAQANWNASEVSKKLVNIQTDGSISGAKIATAEPWSTNEPFTVTSDIYSSTGCKSRPFLQSSTASSLIAETNVQSRNCSTKMPGTRSTTVLSKPTQNSAMHQSTGAVTQTSNETKLELSSTMANSGSVSLPTSNSIDKEFEHSKSQTTSDPSVAEHSTFNQTFVHETKYRPTHKTVITETVTKYSTVLINVCKPTY | – | – | effectively degraded alpha-factor, raising the activation threshold of the biosensors
